Active and inactive are the calls of the source.
Experiments:
[1] = target: Intestinal-type alkaline phosphatase (Mus musculus, UniProt P24822); assay: PubChem AID 488785; assay type: functional
[2] = target: T1, Alkaline phosphatase, tissue-nonspecific isozyme (Homo sapiens, UniProt P05186); assay: TNAP enzyme inhibition by screening hits, dose response, selectivity assay for mouse IAP inhibitor project, biochemical, human TNAP, uHTS hits (AID 488906); assay type: functional
T1 sequence (P05186 whole entry): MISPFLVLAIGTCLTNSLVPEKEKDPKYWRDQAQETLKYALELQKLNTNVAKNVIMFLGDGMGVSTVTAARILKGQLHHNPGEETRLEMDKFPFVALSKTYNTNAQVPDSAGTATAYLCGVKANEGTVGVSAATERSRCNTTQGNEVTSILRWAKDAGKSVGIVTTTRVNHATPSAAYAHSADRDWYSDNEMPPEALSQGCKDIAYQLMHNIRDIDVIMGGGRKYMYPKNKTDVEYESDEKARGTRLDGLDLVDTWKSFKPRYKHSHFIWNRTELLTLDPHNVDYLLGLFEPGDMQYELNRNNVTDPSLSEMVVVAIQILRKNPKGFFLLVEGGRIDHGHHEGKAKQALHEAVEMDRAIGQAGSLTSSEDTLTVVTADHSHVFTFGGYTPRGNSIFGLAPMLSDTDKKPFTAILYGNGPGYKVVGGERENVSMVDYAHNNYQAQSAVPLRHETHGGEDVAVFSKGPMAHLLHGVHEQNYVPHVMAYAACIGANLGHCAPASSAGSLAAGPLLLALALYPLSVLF

[3] = target: Intestinal-type alkaline phosphatase (Homo sapiens, UniProt P09923); assay: inhibition of human intestinal alkaline phosphatase – biochemical, dose response (AID 488876); assay type: functional
Ion channel NompC = Ion channel NompC (Danio rerio, UniProt Q7T1G6); assay: Dose response cell-based high-throughput screening assay for agonists of the transient receptor potential channel N1 (TRPN1). [Related pubchem assays (depositor defined):AID1424, AID1448]; assay type: functional
Mucolipin-3 = target: T2, Mucolipin-3 (Homo sapiens, UniProt Q8TDD5); assay: Fluorescence counterscreen assay for […] agonists: dose response cell-based high-throughput screening assay to identify agonists of the transient receptor potential channel ML3 (TRPML3). [Related pubchem assays: 1424, 1448 ]; assay type: functional
T2 sequence (Q8TDD5 whole entry): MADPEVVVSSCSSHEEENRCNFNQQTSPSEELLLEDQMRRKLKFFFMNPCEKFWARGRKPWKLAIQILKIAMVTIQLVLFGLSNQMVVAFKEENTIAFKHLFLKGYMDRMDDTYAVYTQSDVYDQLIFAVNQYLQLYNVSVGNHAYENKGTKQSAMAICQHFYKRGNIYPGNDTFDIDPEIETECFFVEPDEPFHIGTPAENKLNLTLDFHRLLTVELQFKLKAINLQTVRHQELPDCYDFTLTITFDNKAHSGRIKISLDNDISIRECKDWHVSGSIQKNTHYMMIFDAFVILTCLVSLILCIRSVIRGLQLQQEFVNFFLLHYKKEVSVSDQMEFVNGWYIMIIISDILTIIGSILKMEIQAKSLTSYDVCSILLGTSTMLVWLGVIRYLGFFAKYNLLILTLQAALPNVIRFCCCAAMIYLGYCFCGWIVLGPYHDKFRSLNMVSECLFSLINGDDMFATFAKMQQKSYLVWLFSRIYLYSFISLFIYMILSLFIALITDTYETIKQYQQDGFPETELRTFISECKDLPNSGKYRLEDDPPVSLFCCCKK

Vero [4] = assay: cells; assay type: functional; settings: Chlorocebus sabaeus
DLD-1 [5] = assay: DLD-1 cell viability reduction – luminescence, round 1, cytotoxicity control for KLF5 inhibitor project, late-stage follow-up (AID 485338); assay type: functional, cell-based; settings: Homo sapiens
[6] = alpha-synuclein stem-loop luciferase translation blockers – H4 neuroglioma cells, luminescence, confirmation (AID 1988); assay type: functional, cell-based
Vero [7] = assay: cells; assay type: functional, cell-based; settings: Chlorocebus sabaeus
[8] = Luminescence-based counterscreen assay for KLF5 inhibitors: dose response cell-based high throughput screening assay to identify cytotoxic compounds using the IEC-6 intestinal epithelial cell line. [Related pubchem assays: 1700 (Primary screen.), 1834 (Confirmation screen.), 1858 (Summary AID.), 1905 (Counterscreen.)]; assay type: functional
[9] = Luminescence Cell-Based Dose Response HTS to Identify Inhibitors of 5'UTR Stem-Loop Driven Prion Protein mRNA Translation in H4 Neuroglioblastoma Cells. [Related pubchem assays: 1827 (Project Summary), 1813 (Primary HTS)]; assay type: functional
DLD-1 [10] = assay: KLF5 protein lowering by immunoblot – western blot, chemiluminescence, DLD-1 cells, titration, orthogonal assay for KLF5 inhibitor project, late-stage follow-up (AID 485336); assay type: functional, cell-based; settings: Homo sapiens
Vero [11] = assay: mammalian cell viability reduction – secondary assay, cytotoxicity control for West Nile virus antiviral project, dose response (AID 1650); assay type: functional; settings: Chlorocebus sabaeus
[12] = luciferase reporter signal suppression in cells – H4 neuroglioma cells, luminescence, dose response (AID 1990); assay type: functional, cell-based
SUMO-activating enzyme [13] = target: T3, SUMO-activating enzyme (Homo sapiens, UniProt Q9UBT2); assay: blockers of SAE1/SAE2–UBC9 SUMO transfer – biochemical, HTRF, uHTS, primary screen (AID 2006); assay type: protein-complex assay
T3 sequence (Q9UBE0 whole entry): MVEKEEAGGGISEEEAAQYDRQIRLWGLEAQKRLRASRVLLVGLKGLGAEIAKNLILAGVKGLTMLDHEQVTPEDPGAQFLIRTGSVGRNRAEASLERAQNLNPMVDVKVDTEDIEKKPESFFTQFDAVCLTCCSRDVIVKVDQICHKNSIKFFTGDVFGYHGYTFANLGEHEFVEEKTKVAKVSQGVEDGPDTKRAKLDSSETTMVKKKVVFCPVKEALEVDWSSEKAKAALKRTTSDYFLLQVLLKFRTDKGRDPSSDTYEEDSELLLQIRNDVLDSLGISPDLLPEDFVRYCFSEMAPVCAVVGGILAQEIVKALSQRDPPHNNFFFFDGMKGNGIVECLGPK
T3 sequence (Q9UBT2 whole entry): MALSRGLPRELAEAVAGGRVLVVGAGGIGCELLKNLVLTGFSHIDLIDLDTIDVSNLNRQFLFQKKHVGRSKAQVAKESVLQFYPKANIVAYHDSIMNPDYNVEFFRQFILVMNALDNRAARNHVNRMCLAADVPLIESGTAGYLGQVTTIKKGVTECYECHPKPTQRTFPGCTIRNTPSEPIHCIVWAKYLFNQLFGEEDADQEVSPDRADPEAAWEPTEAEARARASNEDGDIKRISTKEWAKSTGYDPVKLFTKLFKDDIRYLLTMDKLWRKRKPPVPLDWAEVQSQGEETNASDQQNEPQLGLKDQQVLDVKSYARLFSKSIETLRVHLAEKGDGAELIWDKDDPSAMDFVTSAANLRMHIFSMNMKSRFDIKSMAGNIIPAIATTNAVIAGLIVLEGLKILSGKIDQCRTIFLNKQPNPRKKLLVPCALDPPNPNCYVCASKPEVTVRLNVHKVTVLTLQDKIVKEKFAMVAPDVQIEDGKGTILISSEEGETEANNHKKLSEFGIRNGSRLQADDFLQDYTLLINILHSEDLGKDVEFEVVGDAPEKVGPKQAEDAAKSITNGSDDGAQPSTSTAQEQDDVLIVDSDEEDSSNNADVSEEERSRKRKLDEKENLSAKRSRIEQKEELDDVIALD

[14] = target: T4, Voltage-gated N-type calcium channel alpha-1B subunit/Amyloid beta A4 precursor protein-binding family A member 1 (Homo sapiens, UniProt Q00975+Q02410); assay type: protein assay
T4 sequence (Q00975 whole entry): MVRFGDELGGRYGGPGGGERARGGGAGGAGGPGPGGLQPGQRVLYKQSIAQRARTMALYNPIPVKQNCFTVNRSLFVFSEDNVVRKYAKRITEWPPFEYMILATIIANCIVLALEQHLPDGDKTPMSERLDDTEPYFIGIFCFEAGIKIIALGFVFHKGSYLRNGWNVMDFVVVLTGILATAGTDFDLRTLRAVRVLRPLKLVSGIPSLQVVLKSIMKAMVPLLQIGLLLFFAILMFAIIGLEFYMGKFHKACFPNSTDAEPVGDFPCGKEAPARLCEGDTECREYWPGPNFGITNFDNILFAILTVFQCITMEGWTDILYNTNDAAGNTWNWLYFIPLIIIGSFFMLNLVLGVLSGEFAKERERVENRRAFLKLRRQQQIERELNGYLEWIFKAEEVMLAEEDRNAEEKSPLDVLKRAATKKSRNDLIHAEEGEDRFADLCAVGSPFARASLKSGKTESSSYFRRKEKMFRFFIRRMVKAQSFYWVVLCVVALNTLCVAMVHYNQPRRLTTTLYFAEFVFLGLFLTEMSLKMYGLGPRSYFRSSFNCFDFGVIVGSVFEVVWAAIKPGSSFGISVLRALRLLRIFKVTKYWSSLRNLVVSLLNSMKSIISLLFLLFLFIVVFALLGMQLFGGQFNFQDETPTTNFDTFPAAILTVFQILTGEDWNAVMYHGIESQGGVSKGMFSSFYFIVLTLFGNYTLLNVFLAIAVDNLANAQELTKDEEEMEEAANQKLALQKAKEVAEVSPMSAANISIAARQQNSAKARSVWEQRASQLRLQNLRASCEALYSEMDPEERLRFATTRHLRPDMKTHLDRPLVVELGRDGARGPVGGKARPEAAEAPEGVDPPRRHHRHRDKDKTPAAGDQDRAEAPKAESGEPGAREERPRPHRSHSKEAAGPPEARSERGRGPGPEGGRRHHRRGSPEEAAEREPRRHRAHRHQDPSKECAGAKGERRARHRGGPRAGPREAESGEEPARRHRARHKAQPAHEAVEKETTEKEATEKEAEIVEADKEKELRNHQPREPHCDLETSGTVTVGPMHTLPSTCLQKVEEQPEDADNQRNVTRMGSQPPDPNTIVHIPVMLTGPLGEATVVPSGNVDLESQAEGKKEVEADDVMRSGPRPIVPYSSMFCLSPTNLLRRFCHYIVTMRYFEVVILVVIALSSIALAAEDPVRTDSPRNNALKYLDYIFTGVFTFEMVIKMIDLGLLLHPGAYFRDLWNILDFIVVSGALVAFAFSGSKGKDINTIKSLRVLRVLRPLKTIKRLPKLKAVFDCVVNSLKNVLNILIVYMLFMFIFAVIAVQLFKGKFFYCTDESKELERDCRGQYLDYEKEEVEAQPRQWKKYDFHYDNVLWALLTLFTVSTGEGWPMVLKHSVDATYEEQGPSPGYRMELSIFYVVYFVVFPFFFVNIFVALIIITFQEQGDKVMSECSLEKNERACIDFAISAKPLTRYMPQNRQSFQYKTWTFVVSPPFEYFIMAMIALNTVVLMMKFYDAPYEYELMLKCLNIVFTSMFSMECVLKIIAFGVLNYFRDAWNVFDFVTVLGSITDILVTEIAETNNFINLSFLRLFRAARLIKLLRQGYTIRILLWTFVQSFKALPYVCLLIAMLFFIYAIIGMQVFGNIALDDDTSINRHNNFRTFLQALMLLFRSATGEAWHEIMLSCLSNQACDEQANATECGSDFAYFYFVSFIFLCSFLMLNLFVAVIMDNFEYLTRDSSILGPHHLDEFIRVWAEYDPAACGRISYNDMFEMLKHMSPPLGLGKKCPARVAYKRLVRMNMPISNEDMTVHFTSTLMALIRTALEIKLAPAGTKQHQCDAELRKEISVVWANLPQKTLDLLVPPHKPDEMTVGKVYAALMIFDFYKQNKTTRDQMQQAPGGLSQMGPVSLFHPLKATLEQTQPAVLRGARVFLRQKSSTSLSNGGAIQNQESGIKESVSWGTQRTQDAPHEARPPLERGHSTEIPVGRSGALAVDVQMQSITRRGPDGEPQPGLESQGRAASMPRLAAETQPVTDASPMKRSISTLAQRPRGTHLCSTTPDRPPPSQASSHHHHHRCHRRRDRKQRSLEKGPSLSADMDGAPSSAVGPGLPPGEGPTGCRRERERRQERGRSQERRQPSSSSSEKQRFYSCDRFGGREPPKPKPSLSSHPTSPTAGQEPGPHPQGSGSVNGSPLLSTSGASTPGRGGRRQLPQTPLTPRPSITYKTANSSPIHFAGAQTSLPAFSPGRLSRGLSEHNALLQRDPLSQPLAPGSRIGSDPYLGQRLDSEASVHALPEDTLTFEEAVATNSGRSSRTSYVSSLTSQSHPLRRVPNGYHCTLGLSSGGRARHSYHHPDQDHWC
T4 sequence (Q02410 whole entry): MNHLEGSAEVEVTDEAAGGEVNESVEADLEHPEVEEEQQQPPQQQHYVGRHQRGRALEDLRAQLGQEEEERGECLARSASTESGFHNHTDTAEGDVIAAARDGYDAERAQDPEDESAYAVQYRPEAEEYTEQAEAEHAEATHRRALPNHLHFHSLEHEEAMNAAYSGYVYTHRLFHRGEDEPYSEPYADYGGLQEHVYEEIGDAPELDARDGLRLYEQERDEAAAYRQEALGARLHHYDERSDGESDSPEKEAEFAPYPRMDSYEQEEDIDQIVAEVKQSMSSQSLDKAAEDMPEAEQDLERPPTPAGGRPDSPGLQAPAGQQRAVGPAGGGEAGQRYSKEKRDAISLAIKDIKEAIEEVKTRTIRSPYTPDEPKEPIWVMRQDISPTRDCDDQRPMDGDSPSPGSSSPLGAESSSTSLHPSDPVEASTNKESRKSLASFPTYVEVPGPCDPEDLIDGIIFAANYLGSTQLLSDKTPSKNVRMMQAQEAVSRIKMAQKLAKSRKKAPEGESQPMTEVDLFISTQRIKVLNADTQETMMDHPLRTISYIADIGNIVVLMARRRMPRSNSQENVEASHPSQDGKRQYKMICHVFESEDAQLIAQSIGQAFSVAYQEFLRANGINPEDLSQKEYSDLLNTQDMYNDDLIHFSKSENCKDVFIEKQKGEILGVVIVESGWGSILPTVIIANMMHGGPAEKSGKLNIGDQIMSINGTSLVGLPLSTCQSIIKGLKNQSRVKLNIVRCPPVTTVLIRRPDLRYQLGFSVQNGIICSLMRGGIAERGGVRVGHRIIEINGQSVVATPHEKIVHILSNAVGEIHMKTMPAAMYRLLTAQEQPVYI

[15] = target: T4, Voltage-gated N-type calcium channel alpha-1B subunit/Amyloid beta A4 precursor protein-binding family A member 1; assay type: protein assay; remark: listed apart in the source
SUMO-activating enzyme [16] = target: T3, SUMO-activating enzyme; assay: blockers of UBC9-mediated SUMO conjugation – biochemical, AlphaScreen, SUMOylation inhibitor project, confirmation (AID 2018); assay type: functional
Hexokinase HKDC1 = target: T5, Hexokinase HKDC1 (Homo sapiens, UniProt Q2TB90); assay: activation of HKDC1 glucose phosphorylation – biochemical, W721R variant, dose response (AID 504730); assay type: functional
T5 sequence (Q2TB90 whole entry): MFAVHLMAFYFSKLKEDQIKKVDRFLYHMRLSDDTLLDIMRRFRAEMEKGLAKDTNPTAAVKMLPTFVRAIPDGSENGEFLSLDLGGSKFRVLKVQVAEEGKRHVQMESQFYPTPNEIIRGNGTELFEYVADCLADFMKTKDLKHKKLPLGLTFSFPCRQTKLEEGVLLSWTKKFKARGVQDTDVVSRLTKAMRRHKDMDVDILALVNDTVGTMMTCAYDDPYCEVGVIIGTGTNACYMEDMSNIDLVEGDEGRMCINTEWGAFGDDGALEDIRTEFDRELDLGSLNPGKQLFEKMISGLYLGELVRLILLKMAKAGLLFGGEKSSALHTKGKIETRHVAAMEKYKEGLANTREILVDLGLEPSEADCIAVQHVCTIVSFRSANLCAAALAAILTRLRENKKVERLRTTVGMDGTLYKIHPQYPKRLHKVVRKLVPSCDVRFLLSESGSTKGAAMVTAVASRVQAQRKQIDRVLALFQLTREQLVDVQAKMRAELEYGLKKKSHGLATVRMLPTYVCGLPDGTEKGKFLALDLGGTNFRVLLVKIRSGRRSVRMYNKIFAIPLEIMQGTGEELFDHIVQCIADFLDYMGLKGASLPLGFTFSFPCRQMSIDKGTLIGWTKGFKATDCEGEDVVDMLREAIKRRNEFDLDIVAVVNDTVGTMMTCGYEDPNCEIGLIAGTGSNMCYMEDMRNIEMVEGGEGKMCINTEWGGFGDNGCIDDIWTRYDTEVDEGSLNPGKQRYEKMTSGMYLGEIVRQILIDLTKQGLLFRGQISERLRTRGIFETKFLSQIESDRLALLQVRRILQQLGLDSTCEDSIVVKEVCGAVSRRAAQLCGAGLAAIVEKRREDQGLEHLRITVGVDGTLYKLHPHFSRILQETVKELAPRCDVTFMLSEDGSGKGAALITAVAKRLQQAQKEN

Bcl-2-related protein A1 [17] = target: T6, Bcl-2-related protein A1 (Mus musculus, UniProt Q07440); assay: Bfl-1 binding inhibitors, SAR follow-up, biochemical, fluorescence polarization (AID 1070)
T6 sequence (Q07440 whole entry): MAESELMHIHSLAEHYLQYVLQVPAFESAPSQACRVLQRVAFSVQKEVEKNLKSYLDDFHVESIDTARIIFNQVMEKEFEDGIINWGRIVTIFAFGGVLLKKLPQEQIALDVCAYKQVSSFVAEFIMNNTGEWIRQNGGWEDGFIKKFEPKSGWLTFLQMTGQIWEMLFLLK

[18] = target: Nucleotide-binding oligomerization domain-containing protein 2 (Homo sapiens, UniProt Q9HC29); assay: inhibition of MDP-driven NOD2 NF-kB reporter – cell-based, set 3, SAR follow-up (AID 2799); assay type: functional
Bcl-2-related protein A1 [19] = target: T6, Bcl-2-related protein A1; assay: small-molecule antagonists of Bfl-1/BH3 interaction – biochemical, TR-FRET, mouse Bfl-1, confirmation (AID 621);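 further: TR-FRET binding of GST-Bfl-1 to FITC-labelled Bid peptide via terbium antibody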
[20] = target: Glyceraldehyde-3-phosphate dehydrogenase (Homo sapiens, UniProt P04406)
Sequence of Glyceraldehyde-3-phosphate dehydrogenase (P04406 whole entry, the tested form may be a part): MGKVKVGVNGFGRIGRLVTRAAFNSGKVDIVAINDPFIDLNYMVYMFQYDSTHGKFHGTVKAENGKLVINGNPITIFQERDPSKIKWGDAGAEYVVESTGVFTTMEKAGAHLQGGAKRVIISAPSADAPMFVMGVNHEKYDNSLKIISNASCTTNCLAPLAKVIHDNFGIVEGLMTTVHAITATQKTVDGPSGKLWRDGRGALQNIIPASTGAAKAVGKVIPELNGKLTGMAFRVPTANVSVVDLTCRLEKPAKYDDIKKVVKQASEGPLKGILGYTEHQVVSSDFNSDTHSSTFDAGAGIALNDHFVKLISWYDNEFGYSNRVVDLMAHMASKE

[21] = target: Nucleotide-binding oligomerization domain-containing protein 1 (Homo sapiens, UniProt Q9Y239); assay: SAR analysis of compounds that inhibit NOD1 - Set 3. [Related pubchem assays (depositor defined):AID1566, AID1575, AID1578, AID1849, AID1852, AID2333, AID2335, AID2466]; assay type: functional
HEK293 = assay: SAR analysis of compounds that are cytotoxic to HEK293 - Set 3. [Related pubchem assays (depositor defined):AID1575, AID1578, AID1848, AID1849, AID2001, AID2333, AID2334, AID2335, AID2337, AID2469]; assay type: functional, cell-based; settings: Homo sapiens
Tumor necrosis factor = Tumor necrosis factor (Homo sapiens, UniProt P01375); assay: analog potency on TNFa NF-kB signaling – cell-based, set 3, SAR follow-up (AID 2801); assay type: functional
[22] = toxicity toward cultured mammalian cells – cell-based, plate reader, cherry-pick samples, cytotoxicity control, dose response (AID 504397); assay type: functional
CAAX prenyl protease 2 = CAAX prenyl protease 2 (Saccharomyces cerevisiae S288c, UniProt Q03530); assay type: biochemical
[23] = target: T7, Dual specificity protein phosphatase 3 (Homo sapiens, UniProt P51452); assay: VHR1 phosphatase inhibitors, biochemical (AID 1878)
T7 sequence (P51452 whole entry): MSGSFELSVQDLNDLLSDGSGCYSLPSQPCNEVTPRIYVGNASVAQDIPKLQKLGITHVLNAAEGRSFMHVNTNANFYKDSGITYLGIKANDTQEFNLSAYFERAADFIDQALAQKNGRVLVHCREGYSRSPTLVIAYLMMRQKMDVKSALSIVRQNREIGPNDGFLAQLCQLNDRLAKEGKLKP

[24] = target: T7, Dual specificity protein phosphatase 3; assay: VHR1 phosphatase inhibitors, primary screen, biochemical, absorbance, uHTS (AID 1654)
[25] = target: Dual specificity protein phosphatase 6 (Rattus norvegicus, UniProt Q64346); assay: inhibition of rat DUSP6 enzyme activity – biochemical, in vitro, primary screen (AID 425)
[26] = target: T8, Kappa-type opioid receptor (Homo sapiens, UniProt P41145); assay: SAR analysis of small molecule agonists of the kappa opioid receptor via a luminescent beta-arrestin assay - Set 3. [Related pubchem assays (depositor defined):AID1777, AID1785, AID1786, AID1966, AID2133, AID2136, AID2284, AID2500]; assay type: functional
T8 sequence (P41145 whole entry): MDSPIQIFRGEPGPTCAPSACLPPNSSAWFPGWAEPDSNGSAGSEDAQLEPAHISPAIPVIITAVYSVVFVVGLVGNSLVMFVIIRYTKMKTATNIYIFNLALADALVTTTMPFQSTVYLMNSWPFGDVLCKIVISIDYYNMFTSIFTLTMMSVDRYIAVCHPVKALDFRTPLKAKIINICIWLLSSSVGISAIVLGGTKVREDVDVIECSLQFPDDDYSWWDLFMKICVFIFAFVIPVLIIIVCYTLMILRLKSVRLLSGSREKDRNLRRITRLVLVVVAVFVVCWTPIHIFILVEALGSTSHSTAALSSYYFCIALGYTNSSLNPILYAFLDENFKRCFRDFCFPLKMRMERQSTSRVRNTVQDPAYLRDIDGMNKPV

Mu-type opioid receptor = Mu-type opioid receptor (Homo sapiens, UniProt P35372); assay: SAR Analysis of Agonists of the MOR Receptor using an Image-Based Assay - Set 3. [Related pubchem assays (depositor defined):AID1777, AID1785, AID1786, AID1966, AID2133, AID2136, AID2284, AID2285, AID2352]; assay type: functional
[27] = target: Delta-type opioid receptor (Homo sapiens, UniProt P41143); assay: SAR Analysis of Agonists of the DOR Receptor using an Image-Based Assay - Set 3. [Related pubchem assays (depositor defined):AID1777, AID1786]; assay type: functional
[28] = target: T8, Kappa-type opioid receptor; assay: kappa opioid receptor activation by imaging – image-based, set 3, SAR follow-up (AID 488833); assay type: functional

SMILES: S=C(NCCC(c1ccccc1)c1ccccc1)Nc1ccc(Cl)cc1
- IC50 [1]: 9.61 µM (active)
- IC50 [2]: > 100 µM (inactive)
- IC50 [3]: > 100 µM (inactive)

SMILES: CCOC(=O)Cn1c(=O)oc2cc(S(=O)(=O)Nc3ccc(F)cc3)ccc21
- EC50 (Ion channel NompC): > 29.9 µM (inactive)
- EC50 (Mucolipin-3): > 29.9 µM (not active)

SMILES: C[C@@H]1O[C@@H](O[C@H]2C[C@@H](O)[C@]3(CO)[C@H]4[C@H](O)C[C@]5(C)[C@@H](C6=CC(=O)OC6)CC[C@]5(O)[C@@H]4CC[C@]3(O)C2)[C@H](O)[C@H](O)[C@H]1O [OUABAIN]
- CC50 (Vero [4]): 0.13 µM (active)
- IC50 (DLD-1 [5]): 0.0464 µM (active)
- EC50 [6]: < 0.1 µM (active)
- IC50 (Vero [7]): < 0.05 µM (active)
- IC50 [8]: > 39.8 µM (not active)
- EC50 [9]: < 0.1 µM (active)
- IC50 (DLD-1 [10]): 0.0297 µM (active)
- CC50 (Vero [11]): 0.16 µM (active)
- EC50 [12]: < 0.1 µM (active)

SMILES: CCOc1ccc(/C=C2/SC(=S)N(CCC(=O)Nc3ccc(C(=O)O)cc3)C2=O)cc1
- IC50 (SUMO-activating enzyme [13]): 23.6 µM (active)
- IC50 [14]: 5.5 µM (active)
- IC50 [15]: > 50 µM (inactive)
- IC50 (SUMO-activating enzyme [16]): 16.8 µM (active)
- EC50 (Hexokinase HKDC1): > 80 µM (inactive)

SMILES: COc1ccc(-c2cc(N)n(S(=O)(=O)c3ccc(Cl)cc3)n2)cc1OC
- IC50 (Bcl-2-related protein A1 [17]): > 100 µM (not active)
- IC50 [18]: > 20 µM (inactive)
- IC50 (Bcl-2-related protein A1 [19]): > 100 µM (not active)
- IC50 [20]: > 100 µM (not active)
- IC50 [21]: > 20 µM (inactive)
- IC50 (HEK293): > 20 µM (inactive)
- IC50 (Tumor necrosis factor): > 20 µM (inactive)

SMILES: CC(=O)N(C)c1ccc(NC(=O)/C=C/c2ccccc2Cl)cc1
- AC50 [22]: > 350 µM (inactive)
- AC50 (CAAX prenyl protease 2): 2.06 µM (active)

SMILES: Cc1ccc(NC(=O)Cn2c(O)c(N=NC(=O)c3cc([N+](=O)[O-])ccc3O)c3ccccc32)cc1
- IC50 [23]: 6.94 µM (active)
- IC50 [24]: 12.9 µM (active)
- IC50 [25]: 31 µM (active)

SMILES: FC(F)(F)c1ccc(CSc2nnc(-c3ccccn3)n2Cc2ccco2)cc1
- EC50 [26]: 2.77 µM (active)
- EC50 (Mu-type opioid receptor): > 32 µM (inactive)
- EC50 [27]: > 64 µM (inactive)
- EC50 [28]: 1.22 µM (active)

— ChEMBL document CHEMBL1201862, “PubChem BioAssay data set” (2004)
